Tests used:
[1] = system: T47D (PI3Kα-H1047R) cell line; test: HTRF phospho-AKT(S473) cell assay in T47D cells; assay type: cell-based, human; conditions: Homo sapiens; T47D (PI3Kα-H1047R) cells, HTRF phospho-AKT(S473), 2 hours compound incubation
In short: (§1)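 T47D (PI3Kα-H1047R; RPMI, 10% FBS, insulin) and SKBR3 (wild-type PI3Kα; McCoy's 5A, 10% FBS) cells treated 2 h at 37 °C with 12-point 1:3 dilutions, top 5 μM and 10 μM respectively, ≤0.5% DMSO. SKBR3 stimulated with 70 ng/ml PDGF-BB for the last 15 min; lysate pAKT(S473) by HTRF, IC50 from curves.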

[2] = system: SKBR3 (PI3Kα-Wild Type) cell line; test: HTRF phospho-AKT(S473) cell assay in SKBR3 cells; assay type: cell-based, human; conditions: Homo sapiens, SK-BR-3; SKBR3 (PI3Kα-Wild Type) cells, HTRF phospho-AKT(S473), 2 hours compound incubation, PDGF-BB stimulated
In short: as §1

SMILES	IC50 [1] [µM]	IC50 [2] [µM]
Cc1cc([C@@H](C)Nc2ccc(Cl)nc2C(=O)NS(C)(=O)=O)c2nc(C3CCN(c4ccn(C)n4)CC3)n(C)c(=O)c2c1 [Compound 223, (R)-6-chloro-3-((1-(3,6-dimethyl-2-(1-(1-methyl-1H-pyrazol-3-yl)piperidin-4-yl)-4-oxo-3,4-dihydroquinazolin-8-yl)ethyl)amino)-N-(methylsulfonyl) picolinamide]	< 0.25	1 to 5
Cc1cc([C@@H](C)Nc2ccc(Cl)nc2C(=O)NS(C)(=O)=O)c2nc(N3Cc4cc(F)cnc4C3)n(C)c(=O)c2c1 [Compound 225, (R)-6-chloro-3-((1-(2-(3-fluoro-5,7-dihydro-6H-pyrrolo[3,4-b]pyridin-6-yl)-3,6-dimethyl-4-oxo-3,4-dihydroquinazolin-8-yl)ethyl)amino)-N-(methylsulfonyl) picolinamide]	< 0.25	1 to 5
Cc1cc([C@@H](C)Nc2ccc(Cl)nc2C(=O)NS(C)(=O)=O)c2nc(N3CCC(c4c(C)nn(C)c4C)CC3)n(C)c(=O)c2c1 [Compound 226, (R)-6-chloro-3-((1-(3,6-dimethyl-4-oxo-2-(4-(1,3,5-trimethyl-1H-pyrazol-4-yl)piperidin-1-yl)-3,4-dihydroquinazolin-8-yl)ethyl)amino)-N-(methylsulfonyl) picolinamide]	< 0.25	1 to 5
Cc1cc([C@@H](C)Nc2ccc(Cl)nc2C(=O)NS(C)(=O)=O)c2nc(C3CCN(c4cnn(C)c4)CC3)n(C)c(=O)c2c1 [Compound 227, (R)-6-chloro-3-((1-(3,6-dimethyl-2-(1-(1-methyl-1H-pyrazol-4-yl)piperidin-4-yl)-4-oxo-3,4-dihydroquinazolin-8-yl)ethyl)amino)-N-(methylsulfonyl) picolinamide]	< 0.25	1 to 5
Cc1cc([C@@H](C)Nc2ccc(Cl)nc2C(=O)NS(C)(=O)=O)c2nc(N3C[C@@H]4C[C@H]3CN4c3ccn(C)n3)n(C)c(=O)c2c1 [Compound 228, 6-chloro-3-(((R)-1-(3,6-dimethyl-2-((1S,4S)-5-(1-methyl-1H-pyrazol-3-yl)-2,5-diazabicyclo[2.2.1]heptan-2-yl)-4-oxo-3,4-dihydroquinazolin-8-yl)ethyl)amino)-N-(methylsulfonyl) picolinamide]	< 0.25	1 to 5
Cc1cc([C@@H](C)Nc2ccc(Cl)nc2C(=O)NS(C)(=O)=O)c2nc(N3C[C@H]4C[C@@H]3CN4c3ccn(C)n3)n(C)c(=O)c2c1 [Compound 229, 6-chloro-3-(((R)-1-(3,6-dimethyl-2-((1R,4R)-5-(1-methyl-1H-pyrazol-3-yl)-2,5-diazabicyclo[2.2.1]heptan-2-yl)-4-oxo-3,4-dihydroquinazolin-8-yl)ethyl)amino)-N-(methylsulfonyl) picolinamide]	< 0.25	1 to 5
Cc1cc([C@@H](C)Nc2ccc(Cl)nc2C(=O)NS(C)(=O)=O)c2nc(N3Cc4cn(CC(F)F)nc4C3)n(C)c(=O)c2c1 [Compound 230, (R)-6-chloro-3-((1-(2-(2-(2,2-difluoroethyl)-2,6-dihydropyrrolo[3,4-c]pyrazol-5(4H)-yl)-3,6-dimethyl-4-oxo-3,4-dihydroquinazolin-8-yl)ethyl)amino)-N-(methylsulfonyl) picolinamide]	< 0.25	1 to 5
Cc1cc([C@@H](C)Nc2ccc(Cl)nc2C(=O)NS(C)(=O)=O)c2nc(N3CCC(c4c(C)n[nH]c4C)CC3)n(C)c(=O)c2c1 [Compound 232, (R)-6-chloro-3-((1-(2-(4-(3,5-dimethyl-1H-pyrazol-4-yl)piperidin-1-yl)-3,6-dimethyl-4-oxo-3,4-dihydroquinazolin-8-yl)ethyl)amino)-N-(methylsulfonyl) picolinamide]	< 0.25	1 to 5
Cc1cc([C@@H](C)Nc2ccc(Cl)nc2C(=O)NS(C)(=O)=O)c2nc(N3C[C@H]4C[C@@H]3CN4c3cnn(C)c3)n(C)c(=O)c2c1 [Compound 233, 6-chloro-3-(((R)-1-(3,6-dimethyl-2-((1R,4R)-5-(1-methyl-1H-pyrazol-4-yl)-2,5-diazabicyclo[2.2.1]heptan-2-yl)-4-oxo-3,4-dihydroquinazolin-8-yl)ethyl)amino)-N-(methylsulfonyl) picolinamide]	< 0.25	1 to 5
Cc1cc([C@@H](C)Nc2ccc(Cl)nc2C(=O)NS(C)(=O)=O)c2nc(N3CCC(n4cc(-c5cccnc5)cn4)CC3)n(C)c(=O)c2c1 [Compound 234, (R)-6-chloro-3-((1-(3,6-dimethyl-4-oxo-2-(4-(4-(pyridin-3-yl)-1H-pyrazol-1-yl)piperidin-1-yl)-3,4-dihydroquinazolin-8-yl)ethyl)amino)-N-(methylsulfonyl) picolinamide]	< 0.25	1 to 5
Cc1cc([C@@H](C)Nc2ccc(Cl)nc2C(=O)NS(C)(=O)=O)c2nc(N3CCC(n4cc(-c5ccccc5)cn4)CC3)n(C)c(=O)c2c1 [Compound 235, (R)-6-chloro-3-((1-(3,6-dimethyl-4-oxo-2-(4-(4-phenyl-1H-pyrazol-1-yl)piperidin-1-yl)-3,4-dihydroquinazolin-8-yl)ethyl)amino)-N-(methylsulfonyl) picolinamide]	0.25 to 0.5	≥ 5
Cc1cc([C@@H](C)Nc2ccc(Cl)nc2C(=O)NS(C)(=O)=O)c2nc(N3Cc4cn(-c5ccc(C#N)cc5)nc4C3)n(C)c(=O)c2c1 [Compound 239, (R)-6-chloro-3-((1-(2-(2-(4-cyanophenyl)-2,6-dihydropyrrolo[3,4-c]pyrazol-5(4H)-yl)-3,6-dimethyl-4-oxo-3,4-dihydroquinazolin-8-yl)ethyl)amino)-N-(methylsulfonyl) picolinamide]	< 0.25	1 to 5

Now from value to compound:

IC50 [1] [µM]	IC50 [2] [µM]	SMILES
< 0.25	1 to 5	Cc1cc([C@@H](C)Nc2ccc(Cl)nc2C(=O)NS(C)(=O)=O)c2nc(N3CCC[C@H](C#N)C3)n(C)c(=O)c2c1 [Compound 209, 6-chloro-3-(((R)-1-(2-((S)-3-cyanopiperidin-1-yl)-3,6-dimethyl-4-oxo-3,4-dihydroquinazolin-8-yl)ethyl)amino)-N-(methylsulfonyl) picolinamide]
< 0.25	1 to 5	Cc1cc([C@@H](C)Nc2ccc(Cl)nc2C(=O)NS(C)(=O)=O)c2nc(N3Cc4cn(C(F)(F)F)nc4C3)n(C)c(=O)c2c1 [Compound 210, (R)-6-chloro-3-((1-(3,6-dimethyl-4-oxo-2-(2-(trifluoromethyl)-2,6-dihydropyrrolo[3,4-c]pyrazol-5(4H)-yl)-3,4-dihydroquinazolin-8-yl)ethyl)amino)-N-(methylsulfonyl) picolinamide]
< 0.25	1 to 5	Cc1cc([C@@H](C)Nc2ccc(Cl)nc2C(=O)NS(C)(=O)=O)c2nc(N3CCc4cn(CC(F)(F)F)nc4C3)n(C)c(=O)c2c1 [Compound 214, (R)-6-chloro-3-((1-(3,6-dimethyl-4-oxo-2-(2-(2,2,2-trifluoroethyl)-2,4,5,7-tetrahydro-6H-pyrazolo[3,4-c]pyridin-6-yl)-3,4-dihydroquinazolin-8-yl)ethyl)amino)-N-(methylsulfonyl) picolinamide]
< 0.25	1 to 5	Cc1cc([C@@H](C)Nc2ccc(Cl)nc2C(=O)NS(C)(=O)=O)c2nc(N3Cc4cn(CC(C)(C)O)nc4C3)n(C)c(=O)c2c1 [Compound 216, (R)-6-chloro-3-((1-(2-(2-(2-hydroxy-2-methylpropyl)-2,6-dihydropyrrolo[3,4-c]pyrazol-5(4H)-yl)-3,6-dimethyl-4-oxo-3,4-dihydroquinazolin-8-yl)ethyl)amino)-N-(methylsulfonyl) picolinamide]
< 0.25	1 to 5	Cc1cc([C@@H](C)Nc2ccc(Cl)nc2C(=O)NS(C)(=O)=O)c2nc(N3Cc4cn(-c5ccc(C)nc5)nc4C3)n(C)c(=O)c2c1 [Compound 217, (R)-6-chloro-3-((1-(3,6-dimethyl-2-(2-(6-methylpyridin-3-yl)-2,6-dihydropyrrolo[3,4-c]pyrazol-5(4H)-yl)-4-oxo-3,4-dihydroquinazolin-8-yl)ethyl)amino)-N-(methylsulfonyl) picolinamide]
< 0.25	1 to 5	Cc1cc([C@@H](C)Nc2ccc(Cl)nc2C(=O)NS(C)(=O)=O)c2nc(N3Cc4cn(-c5ccc(C#N)cn5)nc4C3)n(C)c(=O)c2c1 [Compound 219, (R)-6-chloro-3-((1-(2-(2-(5-cyanopyridin-2-yl)-2,6-dihydropyrrolo[3,4-c]pyrazol-5(4H)-yl)-3,6-dimethyl-4-oxo-3,4-dihydroquinazolin-8-yl)ethyl)amino)-N-(methylsulfonyl) picolinamide]
< 0.25	1 to 5	Cc1cc([C@@H](C)Nc2ccc(Cl)nc2C(=O)NS(C)(=O)=O)c2nc(N3CCc4nn(CC(F)(F)F)cc4C3)n(C)c(=O)c2c1 [Compound 220, (R)-6-chloro-3-((1-(3,6-dimethyl-4-oxo-2-(2-(2,2,2-trifluoroethyl)-2,4,6,7-tetrahydro-5H-pyrazolo[4,3-c]pyridin-5-yl)-3,4-dihydroquinazolin-8-yl)ethyl)amino)-N-(methylsulfonyl) picolinamide]
< 0.25	1 to 5	Cc1cc([C@@H](C)Nc2ccc(Cl)nc2C(=O)NS(C)(=O)=O)c2nc(N3CCc4c(cnn4CC(F)(F)F)C3)n(C)c(=O)c2c1 [Compound 221, (R)-6-chloro-3-((1-(3,6-dimethyl-4-oxo-2-(1-(2,2,2-trifluoroethyl)-1,4,6,7-tetrahydro-5H-pyrazolo[4,3-c]pyridin-5-yl)-3,4-dihydroquinazolin-8-yl)ethyl)amino)-N-(methylsulfonyl) picolinamide]

Reference: patent publication US12281122B1, “PI3K inhibitors” (Cogent Biosciences, Inc., priority 2023, dated 2025)
